A short description of the data set: Dye loss from coated membranes type P in stirred saline. Format: physicochemical. To be noted: water-soluble dye, stirred saline at 37° C., 5 min. The source says: Membranes type P were coated either with a water-soluble dye without resveratrol or combined with resveratrol.

For the compound `Oc1ccc(C=Cc2cc(O)cc(O)c2)cc1` [Resveratrol, resveratrol], the “adhesion of the dye” value was “significantly improved the adhesion of the dye”.

For the origin of these results see US9974888B2, “Formulations for drug-coated medical devices” (priority 2010, dated 2018).
